Source: patent US5447900A, “Thermosensitive recording material” (priority 1993, dated 1995)

Experiment: Acid dissociation constant (pKa) by titration with sodium hydroxide, pH meter, in water/methanol 1:1
Type: physicochemical
Protocol: In Table 1, the acid dissociation constant of a compound was measured by the following method:
A commercially available pH meter "HORIBA N-8F" (Trademark), made by Horiba Ltd., equipped with three composite electrodes, was calibrated by using the following two solutions:
Water/methanol solution (with a volume ratio of 1:1) containing 0.05 mol/l potassium hydrogenphthalate.
Water/methanol solution (with a volume ratio of 1:1) containing 0.01 mol/l tris(hydroxy)aminomethane and 0.01 mol/l tris(hydroxy)aminomethane hydrochloride.
Then, a solution A was prepared in such a manner that 0.4969 g of 4-(4'-phenoxybutoxy)phthalic acid (Compound No. 1 in Table 1) and 0.5844 g of sodium chloride,were dissolved in a mixed solvent consisting of 50 ml of water and 50 ml of methanol.
In addition, a 0.1068 mol/l sodium hydroxide aqueous solution was prepared by standardizing the solution with potassium hydrogen-phthalate. This solution was hereinafter referred to as a solution B.
The solution A was placed in a beaker and stirred with a stirrer. The solution B was added dropwise in an amount of 0.5 to 1.0 ml to the solution A, with stirring, through a buret. When the pH of the solution A reached a constant value, the pH was measured. The pH was further measured with further addition of the solution B to the solution A, so that a titration curve was obtained. This titration curve was fitted in a theoretical formula by using a computer program, so that an acid dissociation constant of the compound No. 1 was calculated.

[1] = comparative color developer, solvent not given
[2] = mixed solvent of water and methanol, volume ratio 1:1

**Q.** With CC(C)Oc1ccc(S(=O)(=O)c2ccc(O)cc2)cc1 [4-isopropoxy-4'-hydroxydiphenylsulfone] as the molecule, how does the “acid dissociation constant pKa” value [1] read?
**A.** Its value is 8.27.

**Q.** Which “acid dissociation constant pKa1 (printed pKal)” value [1] does the source give for CC(C)(c1ccc(O)cc1)c1ccc(O)cc1 [4,4'-isopropylidene diphenol] here?
**A.** The value was ~10.7.

**Q.** What about the “acid dissociation constant pKa2” value [1] of the same molecule?
**A.** The value was 10.7.

**Q.** Which results are given for O=C(O)c1ccc(OCCCCOc2ccccc2)cc1C(=O)O [Compound No. 1, 4-(4'-phenoxybutoxy)phthalic acid]?
**A.** Acid Dissociation Constant pKa1 [2]: 3.55; acid dissociation constant pKa2 [2]: 6.59
